Data set [1] concerns Aryl sulphatase. The data set can be described thus: Mouse macrophage aryl sulphatase activity. Type of data set: cell-based. The note with it: 60 min incubation, read-out: Aryl Sulphatase IC50.
For data set [2], the system named is Prostaglandin cyclooxygenase. The data set can be described thus: Mouse macrophage prostaglandin cyclooxygenase activity. Type of data set: cell-based. Particulars: 60 min incubation, read-out: Prostaglandin Cyclooxygenase IC50. The source says: (§1) 3. Mouse macrophages J774A.1 BALB/c
(§2) Prostaglandin synthetase purified beef seminal vesicle ^3 H arachidonic acid (86.2 Ci/mmol), tlc separation.

For data set [3], the target named is Aryl sulphatase. The experiment in a line: Mouse hepatic lysosomal aryl sulphatase activity. Type of data set: biochemical. Particulars: 60 min incubation. The text has this: (§3) 1. Cf1 male mouse hepatic 10% homogenates in 0.25M sucrose+0.001MEDTA,pH 7.2.
(§4) Lysosomal Enzymes - free and total [triton X-100].
3. Aryl sulphatase- p-nitrocatechol sulfate, pH
5. 8 p-nitro-catechol product 510 nm.

For data set [4], the target named is T1, Cathepsin D (Mus musculus, UniProt P18242).
T1 construct: azocasein assay pH 5.0
The experiment in a line: Mouse hepatic lysosomal cathepsin D activity. Type of data set: biochemical. The note with it: mouse hepatic, 60 min incubation, read-out: Cathepsin D IC50.
Text: as §3, §4
(§5) 2. Acid Cathepsin D -azocasein-pH 5.0, hydrolytic azo-peptide produce 366 nm.
Cathepsin azo casein activity -

The subject of another data set is Sprague Dawley Rats. The experiment in a line: Anti-inflammatory activity in Sprague Dawley rats. Type of data set: in vivo. Particulars: Table IV; 8 mg/kg I.P.
Data set [5] has as its system Cf1 male mice. The experiment in a line: Writhing reflex, 0.6% acetic acid. Type of data set: in vivo. Particulars: Mus musculus, ip, Table IV.
Another data set concerns human osteosarcoma cells. The experiment in a line: Cytotoxicity against growth of human osteosarcoma cells. The note with it: Table XX; human osteosarcoma (ATCC); read-out: Cytoxicity ED-50 Osteosarcoma. Type of data set: cell-based.
Data set [6] concerns Elastase. The data set can be described thus: Mouse macrophage elastase activity. Type of data set: cell-based. Particulars: 60 min incubation, read-out: Elastase IC50.
Data set [7] has as its system Trypsin. The experiment in a line: Mouse macrophage trypsin (BAEE) activity. Type of data set: cell-based. The note with it: 60 min incubation, read-out: Trypsin BAEE IC50.
For the next data set, the target named is T2, Prostaglandin synthetase (Bos taurus, UniProt O62664).
T2 construct: Prostaglandin synthetase purified beef seminal vesicle; from tissue
T2 sequence (O62664 25-600): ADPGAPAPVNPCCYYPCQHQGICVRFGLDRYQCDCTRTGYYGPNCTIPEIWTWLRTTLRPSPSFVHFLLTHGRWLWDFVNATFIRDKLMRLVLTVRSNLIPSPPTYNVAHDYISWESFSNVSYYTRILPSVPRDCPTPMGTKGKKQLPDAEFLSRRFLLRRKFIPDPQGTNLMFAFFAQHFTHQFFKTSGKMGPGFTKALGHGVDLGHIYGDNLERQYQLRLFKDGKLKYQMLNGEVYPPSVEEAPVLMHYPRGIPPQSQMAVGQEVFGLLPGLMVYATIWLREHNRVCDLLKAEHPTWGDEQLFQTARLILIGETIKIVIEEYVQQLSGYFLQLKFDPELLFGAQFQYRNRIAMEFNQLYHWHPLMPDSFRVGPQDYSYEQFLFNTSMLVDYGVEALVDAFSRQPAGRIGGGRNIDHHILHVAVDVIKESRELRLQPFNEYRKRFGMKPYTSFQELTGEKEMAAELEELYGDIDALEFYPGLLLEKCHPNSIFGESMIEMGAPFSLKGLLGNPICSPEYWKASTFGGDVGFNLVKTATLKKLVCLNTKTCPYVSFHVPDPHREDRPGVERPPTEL
The data set can be described thus: Prostaglandin synthetase (cyclooxygenase), purified beef seminal vesicle. Type of data set: biochemical. The note with it: Table IX; commercial enzyme preparation; read-out: Beef Prostaglandin Cyclooxygenase IC50.
Text: as §2

Data set [8] concerns Acid phosphatase. The experiment in a line: Mouse macrophage acid phosphatase activity. Type of data set: cell-based. Particulars: 60 min incubation, read-out: Acid Phosphatase IC50.
Data set [9] concerns the target Acid phosphatase. The experiment in a line: Mouse hepatic lysosomal acid phosphatase activity. Type of data set: biochemical. Particulars: mouse hepatic, 60 min incubation.
Text: as §3, §4
1. Acid phosphatase -beta glycerol-3-phosphate, pH 5.0, released IP 720 nm.
Acid phosphatase activity -

Data set [10] has as its system human osteoporosis fibroblastic cells. The experiment in a line: Cytotoxicity against growth of human osteoporosis fibroblastic cells. Type of data set: cell-based. Particulars: Fibroblast, Table XX, read-out: Cytoxicity ED-50 Osteoporosis Fibroblasts.
The test system of data set [11] is Trypsin. The experiment in a line: Mouse hepatic trypsin activity. Type of data set: biochemical. Particulars: 60 min incubation.
Text: as §3
1. Trypsin- N-benzoyl-L-arginine ethyl ester pH 8.0, hydrolytic product 253 nm.

In data set [12] the target is Clostridium histolyticum Collagenase Type I. The data set can be described thus: Commercial collagenase type I. Type of data set: biochemical. The note with it: Table IX; commercial enzyme preparation. The text has this: (§6) 3. Collagenase I, Clostridium histolyticum, bone, skin, tendon, blood vessel, dentine, GI. substrate: rat collagen, N-[propionate-2-3-^3 H] propionylated measured as dpm released.

Data set [13] has as its system Cf1 male mice. The experiment in a line: Anti-inflammatory screen, Winter's test, 2% carrageenan hind foot. Particulars: Table XIV; unit inferred; unit assumed. Type of data set: in vivo. The method, then:
Anti-inflammatory Screen- Cf1 - male mice-Winter's Test 2% carrageenan S.C. plantar surface of hind foot, drugs administered @8 or 10 mg/kg I.P. 2X
Winter, C.A., et al, Proc. Soc.

The subject of data set [14] is Cf1 male mice. The experiment in a line: Hot plate tail flick test. Type of data set: in vivo. The note with it: Table XIV; unit not given. For orientation: Thermal pain tests record how soon the animal reacts.
In data set [15] the test system is Cf1 male mice. The experiment in a line: Writhing reflex, 0.6% acetic acid. Type of data set: in vivo. The note with it: Table XIV; unit inferred; unit assumed. Here is the method: Writhing reflex- Cf1 -male mice- 0.6% acetic acid I.P. drugs administered @20 mg/kg/ I.P. 20 min. later - the # of stretches/10 min.
Hendershot, L.C., et al, J.
Background: Writhing tests count abdominal constrictions after an irritant is injected.

The next data set concerns the target T3, Pg. cyclooxygenase (Sus scrofa, UniProt A0A287ANF9).
T3 construct: Porcine Seminal; from tissue; the methods section prints beef seminal vesicle
The data set can be described thus: Porcine seminal vesicles Pg. cyclooxygenase. Type of data set: biochemical.

Data set [16] deals with Elastase. The experiment in a line: Mouse hepatic elastase activity. Type of data set: biochemical. The note with it: Table VI, 60 min incubation.
Text: as §3
(§7) 2. Elastase- N-succinyl-L-alanyl-L-alanine-p-nitroanilide, pH 8.0, p-nitro anilide 410 nm.
Elastase activity - in vitro

The next data set addresses Commercial Collagenase. The data set can be described thus: Commercial collagenase (type not stated). Type of data set: biochemical. The note with it: Table XVI; 60 min incubation.
Text: as §6
4. Collagenase II, Clostridium histolyticum, cartilage collagen.

The target of data set [17] is T1, Cathepsin D. The experiment in a line: Mouse macrophage cathepsin D activity. Type of data set: cell-based. The note with it: 60 min incubation.
Text: as §1, §5

Data set [18] addresses T4, Porcine Pancreatic Elastase (Sus scrofa, UniProt P00772).
T4 construct: purchased; host or cells: porcine pancreas
The experiment in a line: Porcine pancreatic elastase activity in vitro. Type of data set: biochemical. The note with it: Table IX; commercial enzyme preparation.
Text: as §7

In data set [19] the test system is urinary excretion of calcium, magnesium, phosphorus. Particulars: in the diet at 3 mg/day; cited from earlier work.
For a further data set, the system named is testes. The note with it: 250 mg/kg for 16 days; cited from earlier work.
Setting [20] is: Table VII, mouse macrophage cultured cells.

Structures can show the parent of a compound that is named as a salt. Where two headings read alike, the source gives them in different places.

Consider three molecules from patent publication US5312816A, “Method of combatting osteoporosis in mammalian subjects, utilizing organic boron compounds” (priority 1993, dated 1994).

T1 sequence (P18242 65-410): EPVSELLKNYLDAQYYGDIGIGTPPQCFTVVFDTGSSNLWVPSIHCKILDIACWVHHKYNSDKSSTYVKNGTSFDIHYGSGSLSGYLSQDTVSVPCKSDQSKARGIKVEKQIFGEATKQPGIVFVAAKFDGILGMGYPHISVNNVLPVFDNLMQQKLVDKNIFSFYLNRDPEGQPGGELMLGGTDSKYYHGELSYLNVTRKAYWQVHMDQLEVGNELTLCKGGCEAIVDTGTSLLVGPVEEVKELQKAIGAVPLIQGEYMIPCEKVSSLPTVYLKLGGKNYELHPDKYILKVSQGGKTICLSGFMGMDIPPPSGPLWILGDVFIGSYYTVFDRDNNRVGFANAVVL
T3 sequence (A0A287ANF9 25-600): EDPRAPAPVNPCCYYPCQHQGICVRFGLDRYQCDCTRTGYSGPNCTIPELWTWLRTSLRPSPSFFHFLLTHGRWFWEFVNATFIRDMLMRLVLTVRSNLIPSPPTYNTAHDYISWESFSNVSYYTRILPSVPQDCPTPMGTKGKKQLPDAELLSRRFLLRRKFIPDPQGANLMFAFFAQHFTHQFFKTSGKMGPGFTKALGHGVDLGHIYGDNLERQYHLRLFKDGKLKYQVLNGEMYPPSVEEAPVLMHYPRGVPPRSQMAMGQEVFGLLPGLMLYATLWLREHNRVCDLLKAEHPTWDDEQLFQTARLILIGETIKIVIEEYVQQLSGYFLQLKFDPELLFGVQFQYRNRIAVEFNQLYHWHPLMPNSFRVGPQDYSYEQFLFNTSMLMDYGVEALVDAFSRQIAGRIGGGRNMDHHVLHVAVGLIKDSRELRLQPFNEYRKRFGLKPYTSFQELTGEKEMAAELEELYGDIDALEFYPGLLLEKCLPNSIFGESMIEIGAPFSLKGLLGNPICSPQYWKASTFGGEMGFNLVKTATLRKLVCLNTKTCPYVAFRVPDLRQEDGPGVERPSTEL
T4 sequence (P00772 27-266): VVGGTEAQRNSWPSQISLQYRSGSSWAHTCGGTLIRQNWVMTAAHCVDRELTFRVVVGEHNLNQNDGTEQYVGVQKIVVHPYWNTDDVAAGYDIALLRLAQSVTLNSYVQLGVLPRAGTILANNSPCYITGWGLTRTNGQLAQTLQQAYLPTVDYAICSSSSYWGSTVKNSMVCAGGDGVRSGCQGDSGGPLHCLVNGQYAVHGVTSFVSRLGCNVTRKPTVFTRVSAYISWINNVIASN

On to `C[N+](C)(C)[BH2-]C(=O)NO` [Compound 14, Trimethylamine-boranecarbohydroxamic acid tetraphenylborate salt.], for which the IC50 was 1.37 µM in the data set on Aryl sulphatase [1] (setting [20]); 1.61 µM in data set [2] (Table VIII, mouse macrophages); 5.85 µM against Aryl sulphatase [3] (Table V); 3.66 µM at Cathepsin D [4] (Table V); 1.14 µg/mL in the data set on human osteosarcoma cells; 1.49 µM with Elastase [6] (Table VIII, mouse macrophages). The IC50 was 2.14 µM with Trypsin [7] (Table VIII, mouse macrophages); 1.3 µM on Prostaglandin synthetase; 3.96 µM with Acid phosphatase [8] (setting [20]); 4.22 µM against Acid phosphatase [9] (Table V); 1.21 µg/mL in data set [10]. Further, the “Anti-Inflammatory Activity Sprague Dawley Rats” value with Sprague Dawley Rats came out at 60 % Control. The same molecule had a response vs control in vivo at 8 mg/kg in the data set with Cf1 male mice [5] (8 mg/kg I.P.) of 50%.

For `C[NH+](C)[BH2-]C(=O)O` [Compound 23, Dimethylamine-carboxyborane, sodium salt], the IC50 in the data set on Trypsin [11] (Table VI, mouse hepatic, read-out: Trypsin IC50) was found to be 0.83 µM; with Trypsin [11] (Table XVI, read-out: Mouse Hepatic Trypsin IC50), 9.95 µM; in [12], 667 µM; with Aryl sulphatase [1] (Table XVII, mouse macrophage), 1.6 µM; in data set [2] (Table VIII, mouse macrophages) it was 2.91 µM; in data set [2] (Table XVIII, mouse macrophage), 2.07 µM. The IC50 at Aryl sulphatase [3] (Table XV) was 2.83 µM; on Cathepsin D [4] (Table V), 3.76 µM; on Cathepsin D [4] (Table XV), 7.65 µM; with Elastase [6] (Table VIII, mouse macrophages), 2.67 µM; with Elastase [6] (Table XVIII, mouse macrophage), 6.35 µM; against Pg. cyclooxygenase, 3.1 µM. Besides, the IC50 against Elastase [16] came out at 25.9 µM; against Commercial Collagenase, 506 µM; on Cathepsin D [17] (Table VII, mouse macrophage cultured cells, DMEM +10% FCS +P/S, read-out: Cathepsin D IC50), 6.39 µM; at Cathepsin D [17] (Table XVII, mouse macrophage, read-out: Cathepsin D pH 5.0 IC50), 2.28 µM; in the data set with Trypsin [7] (Table VIII, mouse macrophages) it was 3.1 µM; with Trypsin [7] (Table XVIII, mouse macrophage), 2.21 µM. Besides, the IC50 on Prostaglandin synthetase stood at 3.25 µM; in the data set with Acid phosphatase [8] (setting [20]), 4.75 µM; in the data set with Acid phosphatase [8] (Table XVII, mouse macrophage), 1.42 µM; on Acid phosphatase [9] (Table V), 7.89 µM; against Acid phosphatase [9] (Table XV) it was 3.58 µM; in data set [18] it was 37.3 µM. In the data set with Cf1 male mice [13], this molecule yielded an Anti-Inflammation Cf1 Mice of 68.5%. Further, the “Tail Flick Mice” value with Cf1 male mice [14] was determined as 156. Further, the “Anti-Inflammatory Activity Sprague Dawley Rats” value with Sprague Dawley Rats came out at 55 % Control. Also, in the data set on Cf1 male mice [15], the Writhing Reflex Mice was 70.4%. The molecule also displayed a response vs control in vivo at 20 mg/kg in the data set on Cf1 male mice [5] of 2%.

In the case of `OB(O)O` [boric acid], the “urinary excretion of calcium, magnesium and perhaps phosphorus” value in data set [19] was “blocks the urinary excretion of calcium, magnesium and perhaps phosphorus”. In addition, the effect on testes entry in the data set with testes was “severe degeneration of the testes with giant cell formation, pyknosis and exfoliation”.
